Consider 5 molecules from article PMC6629894, “Ruthenium Complexes Containing Heterocyclic Thioamidates Trigger Caspase-Mediated Apoptosis Through MAPK Signaling in Human Hepatocellular Carcinoma Cells” (Frontiers in Oncology, 2019).

What is called IC50 is the concentration that inhibits the measured activity by half.

Structures are written as SMILES.

In assay [1] the test system is B16-F10 (mouse melanoma). Put plainly: Alamar blue cytotoxicity assay, 72 h. The note with it: for IC50: read-out: IC50 and 95% CI, B16-F10, 72 h. Format: cell-based. The source says: (§1) The cell lines HepG2 (human hepatocellular carcinoma), HL-60 (human promyelocytic leukemia), K-562 (human chronic myelogenous leukemia), B16-F10 (mouse melanoma), MCF-7 (human breast carcinoma), HCT116 (human colon carcinoma), HSC-3 (human oral squamous cell carcinoma), SCC-4 (human oral squamous cell carcinoma), MRC-5 (human lung fibroblast), WT SV40 MEF (wild-type immortalized mouse embryonic fibroblast), and BAD KO SV40 MEF (BAD gene knockout immortalized mouse embryonic fibroblasts) were obtained from the American Type Culture Collection (ATCC, Manassas, VA, USA). Cells were cultured in RPMI 1640 medium (Gibco-BRL, Gaithersburg, MD, USA) with 10% fetal bovine serum (Life, Carlsbad, CA, USA), 2 mM L-glutamine (Vetec Química Fina, Duque de Caxias, RJ, Brazil) and 50 μg/mL gentamycin (Life). For all experiments, adherent cells were collected by treatment with 0.25% trypsin-EDTA solution (Gibco-BRL). All cell lines were cultured in flasks at 37°C in 5% CO2 and were subcultured every 3–4 days to maintain exponential growth. All cell lines were tested for mycoplasma using a mycoplasma staining kit (Sigma-Aldrich Co.) to validate that the cells that were used were free from contamination.
(§2) Cytotoxicity was measured colorimetrically using an Alamar blue method that was performed as previously described ([20], [21]). Cells were seeded in 96-well plates for all experiments (7 × 10^4 cells/mL for adherent cells or 3 × 10^5 cells/mL for suspension cells in 100 μL of medium) and incubated overnight at 37°C with 5% CO2 to allow for adherence. The complexes were dissolved in 0.5% dimethyl sulfoxide (DMSO, Vetec Química Fina) at eight different concentrations from 0.19 to 25 μg/mL and were added to each well and incubated for 72 h. The negative control was treated with the vehicle (0.5% DMSO) that was used to solubilize and dilute the complexes. […] Four (for cell lines) or 24 h (for PBMCs) before the end of incubation, 20 μL of a stock solution (0.312 mg/mL) of resazurin (Sigma-Aldrich Co.) was added to each well. Absorbance was measured at 570 and 600 nm using a SpectraMax 190 Microplate Reader (Molecular Devices, Sunnyvale, CA, USA).
For orientation: Resazurin is reduced to fluorescent resorufin, in cell work by metabolically active cells.

The test system of assay [2] is HCT116 (human colon carcinoma). In words: Alamar blue cytotoxicity assay, 72 h. Format: cell-based. Conditions: PBMCs vs HCT116.
Text: as §1, §2

Assay [3] deals with HL-60 (human promyelocytic leukemia). Put plainly: Alamar blue cytotoxicity assay, 72 h. Format: cell-based.
Text: as §1, §2

Assay [4] has as its system HSC-3 (human oral squamous cell carcinoma). In words: Alamar blue cytotoxicity assay, 72 h. Format: cell-based. Conditions: PBMCs vs HSC-3.
Text: as §1, §2

The test system of assay [5] is SCC-4 (human oral squamous cell carcinoma). Put plainly: Alamar blue cytotoxicity assay, 72 h. Format: cell-based.
Text: as §1, §2

Assay [6] concerns MCF-7 (human breast carcinoma). Put plainly: Alamar blue cytotoxicity assay, 72 h. Format: cell-based.
Text: as §1, §2

For assay [7], the system named is human topoisomerase IB. Further details: method as in PMID 26795676. Conditions: ref [18], [19]; cited from earlier work.
Assay [8] concerns BAD KO SV40 MEF (BAD gene knockout immortalized mouse embryonic fibroblasts). In words: Alamar blue cytotoxicity assay, 72 h. Format: cell-based. Conditions: read-out: IC50 and 95% CI.
Assay [9] has as its system WT SV40 MEF (wild-type immortalized mouse embryonic fibroblast). Put plainly: Alamar blue cytotoxicity assay, 72 h. Format: cell-based. Conditions: read-out: IC50 and 95% CI.
Assay [10] has as its system advanced HCC. Further details: method as in PMID 18650514, PMID 28604110, PMID 29533189. The note with it: ref [2]–[4]; cited from earlier work.

Turning to `F[P-](F)(F)(F)(F)F.Nc1cc(N)nc([S-])n1.[Ru+2].c1ccc(-c2ccccn2)nc1.c1ccc(P(CCCCP(c2ccccc2)c2ccccc2)c2ccccc2)cc1` [Complex 3, [Ru(dmp)(bipy)(dppb)]PF6], the IC50 in assay [1] is 3.9 µM; in [6] (read-out: IC50 and 95% CI, MCF-7, 72 h) it was 8.7 µM. In addition, the “Selectivity index (SI = IC50 [noncancerous cells]/IC50 [cancer cells])” value in assay [2] is given as 2.2; in assay [3] (MRC-5 vs HL-60), 1.1; in assay [3] (PBMCs vs HL-60), 2.6; in assay [4], 2.5; in [5] (MRC-5 vs SCC-4), 1.1; in assay [6] (PBMCs vs MCF-7), 1.5. Besides, the “supercoiled DNA relaxation mediated by human topoisomerase IB” value in assay [7] is given as “inhibit the supercoiled DNA relaxation”.
With `N.N.[Cl][Pt][Cl]` [cisplatin, reference compound], the IC50 in assay [8] was 47.3 µM; in [9] it was 36.9 µM.
Consider `F[P-](F)(F)(F)(F)F.O=C(O)c1ccc([S-])nc1.[Ru+2].c1ccc(-c2ccccn2)nc1.c1ccc(P(CCCCP(c2ccccc2)c2ccccc2)c2ccccc2)cc1` [Complex 4, [Ru(mpca)(bipy)(dppb)]PF6], for which the “Selectivity index (SI = IC50 [noncancerous cells]/IC50 [cancer cells])” value stood at 1.3 in assay [1] (PBMCs vs B16-F10) and 2.6 in [3] (PBMCs vs HL-60). In addition, the IC50 in assay [1] turned out to be 17.7 µM; in assay [3] (read-out: IC50 and 95% CI, HL-60, 72 h), 8.7 µM. The “supercoiled DNA relaxation mediated by human topoisomerase IB” value in assay [7] was “inhibit the supercoiled DNA relaxation”.
As to `CNC(=O)c1cc(Oc2ccc(NC(=O)Nc3ccc(Cl)c(C(F)(F)F)c3)cc2)ccn1` [sorafenib], the prolongation of survival in assay [10] was 3 months.
As to `O=C1[O][Pt]2([NH][C@@H]3CCCC[C@H]3[NH]2)[O]C1=O` [oxaliplatin, reference compound], the IC50 in assay [5] (read-out: IC50 and 95% CI, SCC-4, 72 h) was determined as 7.7 µM.
